Legend:
Assay in all cases: relative viability (nuclei count vs DMSO), 5 days (fraction); higher = more cells survive
NCI-H647 = system: NCI-H647
Outline: (§1)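 Values are medians from duplicate plates. Each reflects relative viability, defined as the nuclei count of treated wells over that of vehicle wells. Lung cancer cell lines in 1536-well plates were pin-tool dosed one day after seeding with one drug alone or with a fixed anchor-drug dose plus five library-drug doses (not always all listed) in √10 steps, then fixed, stained and imaged at 4× after 5 days.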

NCI-H2023 = system: NCI-H2023
Outline: as §1

EPLC-272H = system: EPLC-272H
Outline: as §1

LCLC-97TM1 = system: LCLC-97TM1
Outline: as §1

EMC-BAC-2 = system: EMC-BAC-2
Outline: as §1

NCI-H2347 = system: NCI-H2347
Outline: as §1

NCI-H1993 = system: NCI-H1993
Outline: as §1

NCI-H322M = system: NCI-H322M
Outline: as §1

NCI-H2126 = system: NCI-H2126
Outline: as §1

NCI-H727 = system: NCI-H727
Outline: as §1

NCI-H2085 = system: NCI-H2085
Outline: as §1

SK-LU-1 = system: SK-LU-1
Outline: as §1

NCI-H1915 = system: NCI-H1915
Outline: as §1

H3255 = system: H3255
Outline: as §1

SW 1573 = system: SW 1573
Outline: as §1

PC-14 = system: PC-14
Outline: as §1

NCI-H1734 = system: NCI-H1734
Outline: as §1

HOP-62 = system: HOP-62
Outline: as §1

LXF-289 = system: LXF-289
Outline: as §1

NCI-H2009 = system: NCI-H2009
Outline: as §1

For `COc1nc(C)cnc1NS(=O)(=O)c1cccnc1-c1ccc(-c2nnco2)cc1` [Zibotentan] + CC1(C)CCC(c2ccc(Cl)cc2)=C(CN2CCN(c3ccc(C(=O)NS(=O)(=O)c4ccc(N[C@H](CCN5CCOCC5)CSc5ccccc5)c(S(=O)(=O)C(F)(F)F)c4)cc3)CC2)C1 [Navitoclax] (partner 0.5 µM), which relative viability (NCI-H647; first compound 0.08 µM) is on record?
The relative viability was 1.34.

And the relative viability (NCI-H647; first compound 0.253 µM)?
Its relative viability is 0.875.

And the relative viability (NCI-H647; first compound 0.8 µM)?
The relative viability was 1.

What about the relative viability (NCI-H647; first compound 2.53 µM) of the same compound?
Its relative viability is 1.17.

And the relative viability (NCI-H2023; first compound 0.08 µM)?
Its relative viability is 1.05.

And the relative viability (NCI-H2023; first compound 0.253 µM)?
Its relative viability is 0.922.

What about the relative viability (NCI-H2023; first compound 0.8 µM) of the same compound?
Its relative viability is 1.01.

What about the relative viability (NCI-H2023; first compound 2.53 µM) of the same compound?
Its relative viability is 1.1.

What about the relative viability (EPLC-272H; first compound 0.08 µM) of the same compound?
The relative viability was 1.09.

And the relative viability (EPLC-272H; first compound 0.253 µM)?
The relative viability was 1.1.

And the relative viability (EPLC-272H; first compound 0.8 µM)?
Its relative viability is 1.16.

What about the relative viability (EPLC-272H; first compound 2.53 µM) of the same compound?
Its relative viability is 1.4.

And the relative viability (LCLC-97TM1; first compound 0.08 µM)?
Its relative viability is 0.365.

What about the relative viability (LCLC-97TM1; first compound 0.253 µM) of the same compound?
The relative viability was 0.402.

What about the relative viability (LCLC-97TM1; first compound 0.8 µM) of the same compound?
Its relative viability is 0.403.

What about the relative viability (LCLC-97TM1; first compound 2.53 µM) of the same compound?
The relative viability was 0.447.

And the relative viability (EMC-BAC-2; first compound 0.08 µM)?
The relative viability was 1.11.

And the relative viability (EMC-BAC-2; first compound 0.253 µM)?
Its relative viability is 1.17.

What about the relative viability (EMC-BAC-2; first compound 0.8 µM) of the same compound?
Its relative viability is 1.18.

What about the relative viability (EMC-BAC-2; first compound 2.53 µM) of the same compound?
Its relative viability is 1.19.

And the relative viability (NCI-H2347; first compound 0.08 µM)?
The relative viability was 0.746.

What about the relative viability (NCI-H2347; first compound 0.253 µM) of the same compound?
The relative viability was 0.776.

And the relative viability (NCI-H2347; first compound 0.8 µM)?
The relative viability was 0.741.

And the relative viability (NCI-H2347; first compound 2.53 µM)?
Its relative viability is 0.77.

And the relative viability (NCI-H1993; first compound 0.253 µM)?
Its relative viability is 0.955.

What about the relative viability (NCI-H1993; first compound 0.8 µM) of the same compound?
The relative viability was 0.813.

And the relative viability (NCI-H1993; first compound 2.53 µM)?
Its relative viability is 0.956.

What about the relative viability (NCI-H322M; first compound 0.08 µM) of the same compound?
Its relative viability is 1.12.

What about the relative viability (NCI-H322M; first compound 0.253 µM) of the same compound?
The relative viability was 1.18.

What about the relative viability (NCI-H322M; first compound 0.8 µM) of the same compound?
The relative viability was 1.23.

What about the relative viability (NCI-H322M; first compound 2.53 µM) of the same compound?
The relative viability was 1.3.

And the relative viability (NCI-H2126; first compound 0.08 µM)?
Its relative viability is 0.876.

What about the relative viability (NCI-H2126; first compound 0.253 µM) of the same compound?
The relative viability was 0.796.

What about the relative viability (NCI-H2126; first compound 0.8 µM) of the same compound?
Its relative viability is 0.724.

And the relative viability (NCI-H2126; first compound 2.53 µM)?
Its relative viability is 0.883.

What about the relative viability (NCI-H727; first compound 0.08 µM) of the same compound?
Its relative viability is 0.48.

And the relative viability (NCI-H727; first compound 0.253 µM)?
The relative viability was 0.396.

What about the relative viability (NCI-H727; first compound 0.8 µM) of the same compound?
Its relative viability is 0.48.

And the relative viability (NCI-H727; first compound 2.53 µM)?
The relative viability was 0.435.

What about the relative viability (NCI-H2085; first compound 0.08 µM) of the same compound?
The relative viability was 1.23.

And the relative viability (NCI-H2085; first compound 0.253 µM)?
The relative viability was 1.08.

And the relative viability (NCI-H2085; first compound 0.8 µM)?
The relative viability was 1.28.

What about the relative viability (NCI-H2085; first compound 2.53 µM) of the same compound?
The relative viability was 1.27.

And the relative viability (SK-LU-1; first compound 0.08 µM)?
Its relative viability is 0.911.

And the relative viability (SK-LU-1; first compound 0.253 µM)?
Its relative viability is 0.683.

What about the relative viability (SK-LU-1; first compound 0.8 µM) of the same compound?
The relative viability was 1.04.

And the relative viability (SK-LU-1; first compound 2.53 µM)?
Its relative viability is 0.781.

What about the relative viability (NCI-H1915; first compound 0.08 µM) of the same compound?
The relative viability was 0.732.

What about the relative viability (NCI-H1915; first compound 0.253 µM) of the same compound?
Its relative viability is 0.79.

What about the relative viability (NCI-H1915; first compound 0.8 µM) of the same compound?
The relative viability was 0.805.

And the relative viability (NCI-H1915; first compound 2.53 µM)?
Its relative viability is 0.797.

What about the relative viability (H3255; first compound 0.08 µM) of the same compound?
Its relative viability is 0.458.

And the relative viability (H3255; first compound 0.253 µM)?
The relative viability was 0.603.

What about the relative viability (H3255; first compound 0.8 µM) of the same compound?
Its relative viability is 0.609.

And the relative viability (H3255; first compound 2.53 µM)?
Its relative viability is 0.458.

What about the relative viability (SW 1573; first compound 0.08 µM) of the same compound?
Its relative viability is 0.993.

What about the relative viability (SW 1573; first compound 0.253 µM) of the same compound?
The relative viability was 0.914.

And the relative viability (SW 1573; first compound 0.8 µM)?
The relative viability was 1.01.

And the relative viability (SW 1573; first compound 2.53 µM)?
The relative viability was 1.04.

What about the relative viability (PC-14; first compound 0.08 µM) of the same compound?
The relative viability was 1.01.

And the relative viability (PC-14; first compound 0.253 µM)?
Its relative viability is 0.983.

What about the relative viability (PC-14; first compound 0.8 µM) of the same compound?
Its relative viability is 0.987.

And the relative viability (PC-14; first compound 2.53 µM)?
Its relative viability is 1.03.

What about the relative viability (NCI-H1734; first compound 0.08 µM) of the same compound?
The relative viability was 0.906.

And the relative viability (NCI-H1734; first compound 0.253 µM)?
The relative viability was 0.881.

And the relative viability (NCI-H1734; first compound 0.8 µM)?
Its relative viability is 0.822.

What about the relative viability (NCI-H1734; first compound 2.53 µM) of the same compound?
Its relative viability is 0.897.

What about the relative viability (HOP-62; first compound 0.08 µM) of the same compound?
Its relative viability is 1.06.

And the relative viability (HOP-62; first compound 0.253 µM)?
The relative viability was 1.08.

What about the relative viability (HOP-62; first compound 0.8 µM) of the same compound?
Its relative viability is 0.99.

What about the relative viability (HOP-62; first compound 2.53 µM) of the same compound?
The relative viability was 1.

And the relative viability (LXF-289; first compound 0.08 µM)?
Its relative viability is 0.96.

What about the relative viability (LXF-289; first compound 0.253 µM) of the same compound?
Its relative viability is 0.945.

What about the relative viability (LXF-289; first compound 0.8 µM) of the same compound?
The relative viability was 0.938.

What about the relative viability (LXF-289; first compound 2.53 µM) of the same compound?
Its relative viability is 0.968.

And the relative viability (NCI-H2009; first compound 0.08 µM)?
The relative viability was 1.17.

And the relative viability (NCI-H2009; first compound 0.253 µM)?
Its relative viability is 1.08.

And the relative viability (NCI-H2009; first compound 0.8 µM)?
Its relative viability is 1.2.

What about the relative viability (NCI-H2009; first compound 2.53 µM) of the same compound?
Its relative viability is 1.25.

From the supplement of paper PMC10307832
